Experimental data taken from patent publication US10029986B2, “Alkynyl pyridine-substituted amide compound and pesticide” (NISSAN CHEMICAL INDUSTRIES, LTD., priority 2014, dated 2018).

Experiments:
[1] = system: Blumeria graminis f. sp. tritici; experiment: Test on the preventive effect against wheat powdery mildew; format: in vivo; settings: 168 h, test solution A 500 ppm, 5 ml per pot, wheat 1.3-leaf stage, 7 days after inoculation
How it was run: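 Compounds formulated as 20 wt % emulsifiable concentrates and diluted with water to 500 ppm; 5 ml per pot applied to wheat (Norin 61) at the 1.3-leaf stage. Conidia inoculated one day later in a 20° C greenhouse; lesion proportion scored after 7 days as control value, in duplicate.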

[2] = system: Phaeosphaeria nodorum (Synonym: Septoria nodorum); experiment: Test on the preventive effect against wheat glume blotch; format: in vivo; settings: Parastagonospora nodorum, 144 h; test solution A 500 ppm, 5 ml per pot, wheat 1.3-leaf stage, 2 days inoculation chamber then 6 days at 20° C.
How it was run: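 Wheat (cv. Haruyutaka) at 1.3-leaf stage sprayed with compound at 500 ppm as diluted emulsifiable concentrate, then inoculated one day later with conidial suspension. Kept 2 days at 20° C and 100% RH, then 6 days in a greenhouse at 20° C. Control value derived from lesion proportion on inoculated leaves; duplicate.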

Sclerotinia sclerotiorum = experiment: Test on the preventive effect against cucumber stem rot; format: in vivo; settings: 48 h, test solution A 500 ppm, 5 ml per pot, agar block inoculation, 2 days at 20° C.
How it was run: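 Cucumber (Sagami Hanjiro) at cotyledon stage sprayed with 5 ml/pot of 500 ppm compound from a 20 wt % emulsifiable concentrate, air-dried, then inoculated on seed leaves with agar blocks of S. sclerotiorum grown on PDA. Kept humid at 20° C for 2 days; lesion proportion scored and control value calculated, in duplicate.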

Asperaillus niger = experiment: Test on the antifungal activity against Asperaillus niger; format: cell-based; settings: 48 h; test solution B 100 ppm, 10 μl per well, 96 well plate, 25° C. dark, 2 days after treatment; read-out: efficacy (flora area ratio relative to non-treated well)
Experimental: Compounds of the present invention were dissolved in dimethyl sulfoxide to prepare 1 wt % solutions. Then, distilled water was added to dilute the solutions to the prescribed concentration (100 ppm), and the obtained solutions were used in the following the Test Examples 9 to 12. 60 μl of a potato dextrose 1% agar medium was added to each well of a 96 well plate, and 30 μl of sterilized water containing spores of Asperaillus niger (10 spores/3 μl) was added to each well. Further, 10 μl per well of test solution B of the compounds of the present invention was added, and the plate was left at rest at 25° C. under dark conditions. 2 days after treatment, the flora area ratio (%) was determined to calculate the efficacy (%) relative to the non-treated well in accordance with the following formula. Efficacy (%)=[1−(flora area ratio in treated plot/flora area ratio in non-treated well)]×100

[3] = system: Erysiphe polygoni (synonym: Erysiphe betae); experiment: Test on the preventive effect against cucumber powdery mildew; format: in vivo; settings: 216 h, test solution A 500 ppm, 5 ml per pot sprayed, cucumber cotyledon stage, 9 days after inoculation
How it was run: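 Cucumber (Sagami Hanjiro) at cotyledon stage sprayed with 500 ppm compound (diluted from 20 wt% emulsifiable concentrate), air-dried, then inoculated with Erysiphe polygoni conidia. Kept 9 days at 20 °C in greenhouse; lesion area ratio scored in duplicate, control value = [1−(treated/untreated lesion ratio)]×100.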

[4] = system: Barber pole worm (Haemonchus contortus); experiment: Insecticidal test against Barber pole worm (eggs, 96 well plate); format: in vivo; settings: 96 h, test solution B 100 ppm, 10 μl per well, 25° C. dark, 4 days after treatment, read-out: efficacy (unhatched eggs and inactive larvae relative to non-treated)
Experimental: Compounds of the present invention were dissolved in dimethyl sulfoxide to prepare 1 wt % solutions. Then, distilled water was added to dilute the solutions to the prescribed concentration (100 ppm), and the obtained solutions were used in the following the Test Examples 9 to 12. 60 μl of a potato dextrose 1% agar medium was added to each well of a 96 well plate, and 30 μl of sterilized water containing eggs of Barber pole worm (Haemonchus contortus) (10 eggs/3 μl) was added to each well. Further, 10 μl per well of test solution B of the compounds of the present invention was added, and the plate was left at rest at 25° C. under dark conditions.

Compound	pest or weed control at 500 µg/mL [1] [%]	pest or weed control at 500 µg/mL [2] [%]	pest or weed control at 500 µg/mL (Sclerotinia sclerotiorum) [%]	inhibition of growth at 100 µg/mL (Asperaillus niger) [%]	pest or weed control at 500 µg/mL [3] [%]	pest or weed control at 100 µg/mL [4] [%]
CC(CNC(=O)c1ccccc1C(F)(F)F)c1ncc(C#CC2CC2)cc1Cl (stereo not drawn) [1-007, N-[2-[3-chloro-5-(cyclopropylethynyl)pyridin-2-yl]propyl]-2-(trifluoromethyl)benzamide]	≥ 70	≥ 70	≥ 70	≥ 50	≥ 70	≥ 50
CC(C)(CNC(=O)c1ccccc1C(F)(F)F)c1ncc(C#CC2CC2)cc1Cl [1-008]	≥ 70	≥ 70	≥ 70	≥ 50	≥ 70	≥ 50
O=C(NCC(c1ncc(C#CC2CC2)cc1Cl)C1CC1)c1ccccc1C(F)(F)F (stereo not drawn) [1-009]	≥ 70	≥ 70	≥ 70	≥ 50	≥ 70	≥ 50
C=C(CNC(=O)c1ccccc1C(F)(F)F)c1ncc(C#CC)cc1Cl [1-012, N-[2-[3-chloro-5-(1-propynyl)pyridin-2-yl]-2-propenyl]-2-(trifluoromethyl)benzamide]	≥ 70	≥ 70	≥ 70	≥ 50	≥ 70	≥ 50
CSC(CNC(=O)c1ccccc1C(F)(F)F)c1ncc(C#CC2CC2)cc1Cl (stereo not drawn) [1-021]	≥ 70	≥ 70	≥ 70	≥ 50	≥ 70	≥ 50
COC(c1ncc(C#CC2CC2)cc1Cl)C(C)NC(=O)c1ccccc1C(F)(F)F (stereo not drawn) [1-024]	≥ 70	≥ 70	≥ 70	≥ 50	≥ 70	≥ 50
COC(c1ncc(C#CC(C)(C)C)cc1Cl)C(C)NC(=O)c1ccccc1C(F)(F)F (stereo not drawn) [1-025]	≥ 70	≥ 70	≥ 70	≥ 50	≥ 70	≥ 50
O=C(NCCc1ncc(C#CC2CC2)cc1Cl)c1cccnc1C(F)F [3-001, N-[2-[3-chloro-5-(cyclopropylethynyl)pyridin-2-yl]ethyl]-2-(difluoromethyl)nicotinamide]	≥ 70	≥ 70	≥ 70	≥ 50	≥ 70	≥ 50
CC(C)(C)C#Cc1cnc(CCNC(=O)c2cccnc2C(F)F)c(Cl)c1 [3-002]	≥ 70	≥ 70	≥ 70	≥ 50	≥ 70	≥ 50
O=C(NCC(F)(F)c1ncc(C#CC2CC2)cc1Cl)c1cccnc1C(F)F [3-003, N-[2-[3-chloro-5-(cyclopropylethynyl)pyridin-2-yl]-2,2-difluoroethyl]-2-(difluoromethyl)nicotinamide]	≥ 70	≥ 70	≥ 70	≥ 50	≥ 70	≥ 50
CC(CNC(=O)c1cccnc1Cl)c1ncc(C#CC2CC2)cc1Cl (stereo not drawn) [3-005]	≥ 70	≥ 70	≥ 70	≥ 50	≥ 70	≥ 50
CC(CNC(=O)c1cccnc1C(F)F)c1ncc(C#CC2CC2)cc1Cl (stereo not drawn) [3-006]	≥ 70	≥ 70	≥ 70	≥ 50	≥ 70	≥ 50
CC(C)(CNC(=O)c1cccnc1C(F)F)c1ncc(C#CC2CC2)cc1Cl [3-007, N-[2-[3-chloro-5-(cyclopropylethynyl)pyridin-2-yl]-2-methylpropyl]-2-(difluoromethyl)nicotinamide]	≥ 70	≥ 70	≥ 70	≥ 50	≥ 70	≥ 50
O=C(NCC(c1ncc(C#CC2CC2)cc1Cl)C1CC1)c1cccnc1C(F)F (stereo not drawn) [3-008]	≥ 70	≥ 70	≥ 70	≥ 50	≥ 70	≥ 50
CSC(CNC(=O)c1cccnc1C(F)F)c1ncc(C#CC2CC2)cc1Cl (stereo not drawn) [3-020]	≥ 70	≥ 70	≥ 70	≥ 50	≥ 70	≥ 50
COC(c1ncc(C#CC2CC2)cc1Cl)C(C)NC(=O)c1cccnc1C(F)F (stereo not drawn) [3-021]	≥ 70	≥ 70	≥ 70	≥ 50	≥ 70	≥ 50
Cn1cc(C(=O)NCCc2ncc(C#CC3CC3)cc2Cl)c(C(F)F)n1 [8-001]	≥ 70	≥ 70	≥ 70	≥ 50	≥ 70	≥ 50
Cn1cc(C(=O)NCCc2ncc(C#CC(C)(C)C)cc2Cl)c(C(F)F)n1 [8-002]	≥ 70	≥ 70	≥ 70	≥ 50	≥ 70	≥ 50
Cn1cc(C(=O)NCC(F)(F)c2ncc(C#CC3CC3)cc2Cl)c(C(F)F)n1 [8-003]	≥ 70	≥ 70	≥ 70	≥ 50	≥ 70	≥ 50
CC(CNC(=O)c1cn(C)nc1C(F)F)c1ncc(C#CC2CC2)cc1Cl (stereo not drawn) [8-007]	≥ 70	≥ 70	≥ 70	≥ 50	≥ 70	≥ 50
Cn1cc(C(=O)NCC(C)(C)c2ncc(C#CC3CC3)cc2Cl)c(C(F)F)n1 [8-008]	≥ 70	≥ 70	≥ 70	≥ 50	≥ 70	≥ 50
Cn1cc(C(=O)NCC(c2ncc(C#CC3CC3)cc2Cl)C2CC2)c(C(F)F)n1 (stereo not drawn) [8-009]	≥ 70	≥ 70	≥ 70	≥ 50	≥ 70	≥ 50
